Values of other authors as cited in patent US20100215736A1, “ORAL DOSAGE FORM PROVIDING FAST ADSORPTION OF DRUG” (NOVARTIS AG, priority 2007, published 2010).

Details: in vivo

SMILES: CC(C)Cc1ccc(C(C)C(=O)[O-])cc1.O.O.[Na+] (stereo not shown) [ibuprofen sodium dihydrate salt]
- tmax: 36 min
